Assay results as given in US20230339939A1 (Bayer Aktiengesellschaft, priority 2020, published 2023).

Experiments:
[1] = molecular target: CSNK1D (Homo sapiens (Human), UniProt P48730); assay: CSNK1D Assay (ADP-Glo, 1 μM ATP); assay type: biochemical; conditions: median, read-out: CSNK1D IC50 [mol/l] (median)
Protocol: CSNK1D-inhibitory activity of compounds of the present invention in presence of 1 μM adenosine-tri-phosphate (ATP) was quantified employing the CSNK1 D assay as described in the following paragraphs. In essence, the enzyme activity is measured by quantification of the adenosine-di-phosphate (ADP), which is generated as a co-product of the enzyme reaction, via the “ADP-Glo™ Kinase Assay” kit from the company Promega. This detection system works as follows: In a first step the ATP not consumed in the kinase reaction is quantitatively converted to cAMP employing an adenylate cyclase (“ADP-Glo-reagent”), then the adenylate cyclase is stopped and the ADP generated in the kinase reaction converted to ATP which generates in a luciferase-based reaction a glow-luminescence signal (“Kinase Detection Reagent”).
Recombinant fusion protein of N-terminal Glutathion-S-Transferase (GST) and full-length human CSNK1D, expressed by baculovirus infected insect cells and purified via Glutathion affinity chromatography, was purchased from Life Technologies (product no. PV3665) and used as enzyme. As substrate for the kinase reaction the biotinylated peptide Btn-Ahx-[…] (C-terminus in amide form) was used which can be purchased e.g. from the company Biosyntan (Berlin-Buch, Germany).
For the assay 50 nl of a 100 fold concentrated solution of the test compound in DMSO was pipetted into a white 1536-well microtiter plate (Greiner Bio-One, Frickenhausen, Germany), 2 μL of a solution of CSNK1D in aqueous assay buffer [50 mM HEPES pH 7.5, 10% (v/v) glycerol, 10 mM MgCl2, 50 mM NaCl, 1 mM dithiothreitol, 0.01% (w/v) bovine serum albumin, 0.01% (v/v) Triton X-100] were added and the mixture was incubated for 15 min at 22° C. to allow pre-binding of the test compounds to the enzyme before the start of the kinase reaction. […] The concentration of CSNK1D was adjusted depending of the activity of the enzyme lot and was chosen appropriate to have the assay in the linear range, a typical concentration is about 0.5 ng/μL. The reaction was stopped by the addition of 2.5 μL of “ADP-Glo-reagent” (1:1.5 fold diluted with water) and the resulting mixture was incubated at 22° C. for 1 h to convert the ATP not consumed in the kinase reaction completely […]. Subsequently 2.5 μL of the “kinase detection reagent” (1.2 fold more concentrated than recommended by the producer) were added, the resulting mixture was incubated at 22° C. for 1 h and then the luminescence measured with a suitable measurement instrument (e.g. Viewlux™ from Perkin-Elmer). The amount of emitted light was taken as a measure for the amount of ADP generated and thereby for the activity of the CSNK1D.

[2] = molecular target: CSNK1A1 (Homo sapiens (Human), UniProt P48729); assay: CSNK1A1 High ATP Assay (ADP-Glo, 1 mM ATP); assay type: biochemical; conditions: median, read-out: CSNK1A1 high ATP assay IC50 [mol/l] (median)
Sequence of CSNK1A1 (P48729 whole entry): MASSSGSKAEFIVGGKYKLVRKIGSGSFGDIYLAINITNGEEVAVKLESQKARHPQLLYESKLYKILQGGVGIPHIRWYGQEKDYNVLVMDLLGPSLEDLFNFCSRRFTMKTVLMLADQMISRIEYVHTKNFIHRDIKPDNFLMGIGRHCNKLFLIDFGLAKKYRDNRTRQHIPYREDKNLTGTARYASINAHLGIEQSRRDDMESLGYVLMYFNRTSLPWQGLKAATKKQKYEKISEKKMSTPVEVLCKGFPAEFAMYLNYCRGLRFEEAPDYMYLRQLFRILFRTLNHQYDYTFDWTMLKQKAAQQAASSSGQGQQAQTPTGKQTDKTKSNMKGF
Protocol: CSNK1A1-inhibitory activity of compounds of the present invention in presence of 1 mM adenosine-tri-phosphate (ATP) was quantified employing the CSNK1A1-high-ATP-assay as described in the following paragraphs. In essence, the enzyme activity is measured by quantification of the adenosine-di-phosphate (ADP), which is generated as a co-product of the enzyme reaction, via the “ADP-Glo™ Kinase Assay” kit from the company Promega. This detection system works as follows: In a first step the ATP not consumed in the kinase reaction is quantitatively converted to cAMP employing an adenylate cyclase (“ADP-Glo-reagent”), then the adenylate cyclase is stopped and the ADP generated in the kinase reaction converted to ATP which generates in a luciferase-based reaction a glow-luminescence signal (“Kinase Detection Reagent”).
Recombinant fusion protein of N-terminal Glutathion-S-Transferase (GST) and full-length human CSNK1A1, expressed by baculovirus infected insect cells and purified via Glutathion affinity chromatography, was purchased from Life Technologies (product no. PV4174) and used as enzyme. As substrate for the kinase reaction the biotinylated peptide biotin-Ahx-KRRRAL-pS-VASLPGL (C-terminus in amide form) was used which can be purchased e.g. from the company Biosyntan (Berlin-Buch, Germany).
For the assay 50 nl of a 100 fold concentrated solution of the test compound in DMSO was pipetted into a white low volume 384-well microtiter plate (Greiner Bio-One, Frickenhausen, Germany), 2 μL of a solution of CSNK1A1 in aqueous assay buffer [50 mM HEPES pH 7.5, 10% (v/v) glycerol, 10 mM MgCl2, 50 mM NaCl, 1 mM dithiothreitol, 0.01% (w/v) bovine serum albumin, 0.01% (v/v) Triton X-100] were added and the mixture was incubated for 15 min at 22° C. to allow pre-binding of the test compounds to the enzyme before the start of the kinase reaction. […] The concentration of CSNK1A1 was adjusted depending of the activity of the enzyme lot and was chosen appropriate to have the assay in the linear range, a typical concentration is about 0.4 ng/μL. The reaction was stopped by the addition of 2.5 μL of “ADP-Glo-reagent” (1:1.5 fold diluted with water) and the resulting mixture was incubated at 22° C. for 1 h to convert the ATP not consumed in the kinase reaction completely […]. Subsequently 2.5 μL of the “kinase detection reagent” (1.2 fold more concentrated than recommended by the producer) were added, the resulting mixture was incubated at 22° C. for 1 h and then the luminescence measured with a suitable measurement instrument (e.g. Viewlux™ from Perkin-Elmer). The amount of emitted light was taken as a measure for the amount of ADP generated and thereby for the activity of the CSNK1A1.

Sequence of CSNK1D (P48730 whole entry): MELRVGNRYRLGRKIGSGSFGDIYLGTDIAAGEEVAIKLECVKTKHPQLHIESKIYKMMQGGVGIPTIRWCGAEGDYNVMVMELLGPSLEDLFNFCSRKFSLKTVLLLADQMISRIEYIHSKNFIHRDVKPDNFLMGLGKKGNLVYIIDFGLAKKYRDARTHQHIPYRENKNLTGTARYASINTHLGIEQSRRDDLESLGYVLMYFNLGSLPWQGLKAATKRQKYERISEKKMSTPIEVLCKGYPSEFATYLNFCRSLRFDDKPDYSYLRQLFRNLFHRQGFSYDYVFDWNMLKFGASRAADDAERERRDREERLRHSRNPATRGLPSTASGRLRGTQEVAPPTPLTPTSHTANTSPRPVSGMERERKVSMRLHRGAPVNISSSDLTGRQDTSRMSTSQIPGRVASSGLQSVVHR

Row | SMILES | IC50 [1] [nM] | IC50 [2] [nM]
1 | O=C(Cc1ccc(F)cc1)Nc1cc(-c2[nH]c3cccnc3c2-c2cccc(F)c2)ccn1 [Example 15, 2-(4-fluorophenyl)-N-{4-[3-(3-fluorophenyl)-1H-pyrrolo[3,2-b]pyridin-2-yl]pyridin-2-yl}acetamide] | 3.4 | 87.7
2 | CC(C(=O)Nc1cc(-c2[nH]c3ccc(F)nc3c2-c2ccccn2)ccn1)c1ccc(F)cc1 (single isomer, unassigned; (+)) [Example 3, (+)-2-(4-fluorophenyl)-N-{4-[5-fluoro-3-(pyridin-2-yl)-1H-pyrrolo[3,2-b]pyridin-2-yl]pyridin-2-yl}propanamide] | 2.87 | 12
3 | COCCc1ccnc2c(-c3ccccn3)c(-c3ccnc(NC(=O)Cc4ccc(F)cc4)c3)[nH]c12 [Example 36, 2-(4-fluorophenyl)-N-{4-[7-(2-methoxyethyl)-3-(pyridin-2-yl)-1H-pyrrolo[3,2-b]pyridin-2-yl]pyridin-2-yl}acetamide] | 14.8 | 31.8
4 | O=C(Cc1ccccc1)Nc1cc(-c2[nH]c3cccnc3c2-c2ccccn2)ccn1 [Example 46, 2-phenyl-N-(4-(3-(pyridin-2-yl)-1H-pyrrolo[3,2-b]pyridin-2-yl)pyridin-2-yl)acetamide] | 5.77 | 14.6
5 | O=C(Cc1ccc(F)cc1)Nc1cc(-c2[nH]c3c(C4CC4)ccnc3c2-c2ccccn2)ccn1 [Example 35, N-{4-[7-cyclopropyl-3-(pyridin-2-yl)-1H-pyrrolo[3,2-b]pyridin-2-yl]pyridin-2-yl}-2-(4-fluorophenyl)acetamide] | 4.19 | 6.39
6 | O=C(Cc1ccc(F)cc1)Nc1cc(-c2[nH]c3cccnc3c2-c2ccccn2)ccn1 [Example 5, 2-(4-fluorophenyl)-N-{4-[3-(pyridin-2-yl)-1H-pyrrolo[3,2-b]pyridin-2-yl]pyridin-2-yl}acetamide] | 2.68 | 6.1
7 | COc1ccc2[nH]c(-c3ccnc(NC(=O)Cc4ccc(F)cc4)c3)c(-c3ccccn3)c2n1 [Example 32, 2-(4-fluorophenyl)-N-{4-[5-methoxy-3-(pyridin-2-yl)-1H-pyrrolo[3,2-b]pyridin-2-yl]pyridin-2-yl}acetamide] | 7.52 | 23.3
8 | O=C(Cc1ccc(F)cc1)Nc1cc(-c2[nH]c3cccnc3c2-c2ccccc2)ccn1 [Example 14, 2-(4-fluorophenyl)-N-[4-(3-phenyl-1H-pyrrolo[3,2-b]pyridin-2-yl)pyridin-2-yl]acetamide] | 2.64 | 45.5
9 | O=C(Cc1ccc(F)cc1)Nc1cc(-c2[nH]c3cccnc3c2-c2ccc(Cl)s2)ccn1 [Example 17, N-{4-[3-(5-chlorothiophen-2-yl)-1H-pyrrolo[3,2-b]pyridin-2-yl]pyridin-2-yl}-2-(4-fluorophenyl)acetamide] | 3.15 | 87.3
10 | O=C(Cc1ccc(F)cc1)Nc1cc(-c2[nH]c3c(Cl)ccnc3c2-c2ccccn2)ccn1 [Example 22, N-{4-[7-chloro-3-(pyridin-2-yl)-1H-pyrrolo[3,2-b]pyridin-2-yl]pyridin-2-yl}-2-(4-fluorophenyl)acetamide] | 5.84 | 21.8
11 | O=C(Cc1ccc(F)cc1)Nc1cc(-c2[nH]c3cccnc3c2-c2ncccn2)ccn1 [Example 51, 2-(4-fluorophenyl)-N-{4-[3-(pyrimidin-2-yl)-1H-pyrrolo[3,2-b]pyridin-2-yl]pyridin-2-yl}acetamide] | 20 | 180
12 | CC(C(=O)Nc1cc(-c2[nH]c3ccc(F)nc3c2-c2ccccn2)ccn1)c1ccc(F)cc1 (single isomer, unassigned; (-)) [Example 2, (−)-2-(4-fluorophenyl)-N-{4-[5-fluoro-3-(pyridin-2-yl)-1H-pyrrolo[3,2-b]pyridin-2-yl]pyridin-2-yl}propanamide] | 32.2 | 886
13 | O=C(Cc1ccc(F)cc1)Nc1cc(-c2[nH]c3cccnc3c2-c2ncccn2)ccn1 [Example 16, 2-(4-fluorophenyl)-N-{4-[3-(pyrimidin-2-yl)-1H-pyrrolo[3,2-b]pyridin-2-yl]pyridin-2-yl}acetamide] | 9.02 | 97.9
14 | Cc1cc2[nH]c(-c3ccnc(NC(=O)C(C)c4ccc(F)cc4)c3)c(-c3ccccn3)c2nc1F (racemic) [Example 28, N-{4-[5-fluoro-6-methyl-3-(pyridin-2-yl)-1H-pyrrolo[3,2-b]pyridin-2-yl]pyridin-2-yl}-2-(4-fluorophenyl)propanamide] | 11.3 | 59.1
15 | CC(C(=O)Nc1cc(-c2[nH]c3cccnc3c2-c2ccccn2)ccn1)c1ccc(F)cc1 (single isomer, unassigned; (-)) [Example 8, (−)-2-(4-fluorophenyl)-N-{4-[3-(pyridin-2-yl)-1H-pyrrolo[3,2-b]pyridin-2-yl]pyridin-2-yl}propanamide] | 14.6 | 334
16 | Cc1cc(CC(=O)Nc2cc(-c3[nH]c4cccnc4c3-c3ccccn3)ccn2)ccc1F [Example 41, 2-(4-fluoro-3-methylphenyl)-N-{4-[3-(pyridin-2-yl)-1H-pyrrolo[3,2-b]pyridin-2-yl]pyridin-2-yl}acetamide] | 12.1 | 19
17 | CC(C)C(C(=O)Nc1cc(-c2[nH]c3ccc(F)nc3c2-c2ccccn2)ccn1)c1ccc(F)cc1 (single isomer, unassigned; (+)) [Example 26, (+)-2-(4-fluorophenyl)-N-{4-[5-fluoro-3-(pyridin-2-yl)-1H-pyrrolo[3,2-b]pyridin-2-yl]pyridin-2-yl}-3-methylbutanamide] | 7.62 | 48.6
18 | O=C(Cc1ccc(Cl)cc1)Nc1cc(-c2[nH]c3cccnc3c2-c2ccccn2)ccn1 [Example 42, 2-(4-chlorophenyl)-N-{4-[3-(pyridin-2-yl)-1H-pyrrolo[3,2-b]pyridin-2-yl]pyridin-2-yl}acetamide] | 3.33 | 7.14
19 | O=C(Cc1ccc(F)cc1)Nc1cc(-c2[nH]c3c(N4CCCC4=O)ccnc3c2-c2ccccn2)ccn1 [Example 40, 2-(4-fluorophenyl)-N-{4-[7-(2-oxopyrrolidin-1-yl)-3-(pyridin-2-yl)-1H-pyrrolo[3,2-b]pyridin-2-yl]pyridin-2-yl}acetamide] | 10.3 | 30.1
20 | COCC(C(=O)Nc1cc(-c2[nH]c3cc(F)cnc3c2-c2ccccn2)ccn1)c1ccc(F)cc1 (racemic) [Example 45, (2RS)-2-(4-fluorophenyl)-N-[4-[6-fluoro-3-(2-pyridyl)-1H-pyrrolo[3,2-b]pyridin-2-yl]-2-pyridyl]-3-methoxy-propanamide] | 12 | 38.8
